Columns and labels:
[1] = test system: MDA-MB-231 cells
[2] = test system: PBMC; conditions: 12.5 µM

Molecule	Average (percentage cell inhibition), Dmastoparan MDA-MB231 12.5uM [1] [%]	Average (percentage cell inhibition), Mastoparan PBMC [2] [%]
CC[C@H](C)[C@H](N)C(=O)N[C@@H](CC(N)=O)C(=O)N[C@@H](CC(C)C)C(=O)N[C@@H](CCCCN)C(=O)N[C@@H](C)C(=O)N[C@@H](CC(C)C)C(=O)N[C@@H](C)C(=O)N[C@@H](C)C(=O)N[C@@H](CC(C)C)C(=O)N[C@@H](C)C(=O)N[C@@H](CCCCN)C(=O)N[C@@H](CCCCN)C(=O)N[C@@H](CCCCN)C(=O)N[C@@H](CC(C)C)C(N)=O [K13]	29.9957	5
H-INLKALAALAKKLL-NH2 [L13]	83.7429	38.8767
CC[C@H](C)[C@H](N)C(=O)N[C@@H](CC(N)=O)C(=O)N[C@@H](CC(C)C)C(=O)N[C@@H](CCCCN)C(=O)N[C@@H](C)C(=O)N[C@@H](CC(C)C)C(=O)N[C@@H](C)C(=O)N[C@@H](C)C(=O)N[C@@H](CC(C)C)C(=O)N[C@@H](C)C(=O)N[C@@H](CCCCN)C(=O)N[C@@H](CCCCN)C(=O)N[C@H](C(=O)N[C@@H](CCCCN)C(N)=O)[C@@H](C)CC [K14]	21.2164	6.4564
CC[C@H](C)[C@H](N)C(=O)N[C@@H](CC(N)=O)C(=O)N[C@@H](CC(C)C)C(=O)N[C@@H](CCCCN)C(=O)N[C@@H](C)C(=O)N[C@@H](CC(C)C)C(=O)N[C@@H](C)C(=O)N[C@@H](C)C(=O)N[C@@H](CCC(=O)O)C(=O)N[C@@H](C)C(=O)N[C@@H](CCCCN)C(=O)N[C@@H](CCCCN)C(=O)N[C@H](C(=O)N[C@@H](CC(C)C)C(N)=O)[C@@H](C)CC [E9]	4.314	0.4268
CC[C@H](C)[C@H](N)C(=O)N[C@@H](CC(N)=O)C(=O)N[C@@H](CC(C)C)C(=O)N[C@@H](CCCCN)C(=O)N[C@@H](C)C(=O)NCC(=O)N[C@@H](C)C(=O)N[C@@H](C)C(=O)N[C@@H](CC(C)C)C(=O)N[C@@H](C)C(=O)N[C@@H](CCCCN)C(=O)N[C@@H](CCCCN)C(=O)N[C@H](C(=O)N[C@@H](CC(C)C)C(N)=O)[C@@H](C)CC [G6]	27.1038	3.256
CC[C@H](C)[C@H](N)C(=O)N[C@@H](CC(N)=O)C(=O)N[C@@H](CC(C)C)C(=O)N[C@@H](CCCCN)C(=O)N[C@@H](C)C(=O)N[C@@H](CC(C)C)C(=O)N[C@H](C(=O)N[C@@H](C)C(=O)N[C@@H](CC(C)C)C(=O)N[C@@H](C)C(=O)N[C@@H](CCCCN)C(=O)N[C@@H](CCCCN)C(=O)N[C@H](C(=O)N[C@@H](CC(C)C)C(N)=O)[C@@H](C)CC)[C@@H](C)O [T7]	29.9324	3.741
CC[C@H](C)[C@H](N)C(=O)N[C@@H](CC(N)=O)C(=O)N[C@@H](CC(C)C)C(=O)N[C@@H](CCCCN)C(=O)N[C@@H](C)C(=O)N[C@@H](CC(C)C)C(=O)N[C@@H](C)C(=O)N[C@@H](C)C(=O)N[C@@H](CC(C)C)C(=O)N[C@@H](CCC(=O)O)C(=O)N[C@@H](CCCCN)C(=O)N[C@@H](CCCCN)C(=O)N[C@H](C(=O)N[C@@H](CC(C)C)C(N)=O)[C@@H](C)CC [E10]	7.891	-0.2344
CC[C@H](C)[C@H](N)C(=O)N[C@@H](CC(N)=O)C(=O)N[C@@H](CC(C)C)C(=O)N[C@@H](CCC(=O)O)C(=O)N[C@@H](C)C(=O)N[C@@H](CC(C)C)C(=O)N[C@@H](C)C(=O)N[C@@H](C)C(=O)N[C@@H](CC(C)C)C(=O)N[C@@H](C)C(=O)N[C@@H](CCCCN)C(=O)N[C@@H](CCCCN)C(=O)N[C@H](C(=O)N[C@@H](CC(C)C)C(N)=O)[C@@H](C)CC [E4]	27.9326	5.1636
